pIC50: −log10 of the molar value. Structures can show the parent of a compound that is named as a salt.
How the values were obtained:
[1] = target: T1, recombinant human arginase 2 (Homo sapiens, UniProt P78540); assay: Human arginase inhibition assay (colorimetric urea detection), arginase 2; assay type: biochemical; details: IC50 class, hydrochloride salts, 1 h at 37° C., pH 7.4, 10 mM L-arginine, 200 μM MnCl2, read-out: Activity Class (ARG II)
T1 construct: made in house; host or cells: E. coli
T1 sequence (P78540 23-354): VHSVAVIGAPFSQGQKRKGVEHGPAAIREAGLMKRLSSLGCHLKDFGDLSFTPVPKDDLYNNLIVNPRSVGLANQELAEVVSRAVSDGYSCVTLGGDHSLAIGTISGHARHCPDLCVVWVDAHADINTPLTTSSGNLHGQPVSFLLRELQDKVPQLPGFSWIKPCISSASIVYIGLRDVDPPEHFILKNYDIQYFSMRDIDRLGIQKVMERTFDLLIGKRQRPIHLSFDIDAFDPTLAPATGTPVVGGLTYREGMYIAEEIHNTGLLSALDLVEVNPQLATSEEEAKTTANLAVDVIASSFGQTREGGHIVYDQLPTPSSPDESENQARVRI
Procedure: (§1) The inhibitory activities of the compounds of the invention were assessed using recombinant human arginase 1 and 2. Both enzymes were biosynthesized using a prokaryotic expression system (E. coli) and purified by fast protein liquid chromatography (FPLC). The compounds were screened in 96-well plates at the total reaction volume of 100 μL. Briefly, recombinant enzymes were incubated with the tested compounds for 1 h at 37° C. in the reaction buffer (100 mM sodium phosphate buffer, 130 mM NaCl, 1 mg/mL BSA, pH 7.4) containing substrate (10 mM L-arginine hydrochloride) and cofactor (200 μM MnCl2). The assay is based on the detection of urea, which is generated during the conversion of L-arginine into L-ornithine catalyzed by ARG1 or ARG2. The colorimetrically detectable product was developed by adding a mixture of reagent A (4 mM oPA, 50 mM boric acid, 1 M sulfuric acid, 0.03% Brij-35) and reagent B (4 mM NED, 50 mM boric acid, 1 M sulfuric acid, 0.03% Brij-35) in equal proportions. The absorbance for each well was measured at 515 nm and the enzyme inhibition was calculated. The urea production in the absence of any tested compound was considered as maximal enzyme activity. The absorbance at the absence of arginase (background) was subtracted from all the values. Normalized values were analyzed using GraphPad Prism 7.0 software by plotting inhibition curves and determining the IC50 values.
(§2) The inhibitory activity toward humane arginase 1 of the hydrochloride salts of the exemplary compounds according to the invention is presented in Table 5.
The inhibitory activity toward humane arginase 2 of the hydrochloride salts of the selected exemplary compounds according to the invention is presented in Table 6.

[2] = target: T2, recombinant human arginase 1 (Homo sapiens, UniProt P05089); assay: Human arginase inhibition assay (colorimetric urea detection), arginase 1; assay type: biochemical; details: IC50 class, hydrochloride salts, 1 h at 37° C., pH 7.4, 10 mM L-arginine, 200 μM MnCl2, read-out: Activity Class (ARG I)
T2 construct: made in house; host or cells: E. coli
T2 sequence (P05089 1-322): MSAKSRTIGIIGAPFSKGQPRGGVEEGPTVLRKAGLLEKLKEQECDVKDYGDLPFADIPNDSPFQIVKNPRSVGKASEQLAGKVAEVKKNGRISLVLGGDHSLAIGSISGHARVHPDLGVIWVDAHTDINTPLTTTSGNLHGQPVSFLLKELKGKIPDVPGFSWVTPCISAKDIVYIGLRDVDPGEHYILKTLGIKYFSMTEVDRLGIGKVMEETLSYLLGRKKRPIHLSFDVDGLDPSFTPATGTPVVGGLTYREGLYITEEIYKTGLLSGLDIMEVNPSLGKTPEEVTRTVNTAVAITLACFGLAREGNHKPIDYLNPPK
Procedure: as §1, §2

Row | pIC50 [1] | pIC50 [2] | SMILES
1 | 6.00 to 6.30 | 6.60 to 9.00 | N[C@@H](Cc1c[nH]cn1)C(=O)N1C[C@@H](CCB(O)O)C[C@](N)(C(=O)O)C1 [Example 13, (3R,5S)-1-(L-Histidyl)-3-amino-5-(2-boronoethyl)piperidine-3-carboxylic acid trihydrochloride]
2 | 6.30 to 6.60 | 6.60 to 9.00 | N=C(N)NCCC[C@H](N)C(=O)N1C[C@@H](CCB(O)O)C[C@](N)(C(=O)O)C1 [Example 20, (3R,5S)-1-(L-Arginyl)-3-amino-5-(2-boronoethyl)piperidine-3-carboxylic acid trihydrochloride]
3 | 5.00 to 6.00 | 6.60 to 9.00 | N[C@@H](Cc1ccccc1)C(=O)N1C[C@@H](CCB(O)O)C[C@](N)(C(=O)O)C1 [Example 11, (3R,5S)-1-(L-Phenylalanyl)-3-amino-5-(2-boronoethyl)piperidine-3-carboxylic acid dihydrochloride]
4 | 6.00 to 6.30 | 6.60 to 9.00 | NCC(=O)N1C[C@@H](CCB(O)O)C[C@](N)(C(=O)O)C1 [Example 3, (3R,5S)-3-Amino-5-(2-boronoethyl)-1-glycylpiperidine-3-carboxylic acid dihydrochloride]
5 | 6.00 to 6.30 | 6.30 to 6.60 | C[C@H](N)C(=O)N1C[C@@H](CCB(O)O)C[C@](N)(C(=O)O)C1 [Example 1, (3R,5S)-1-(L-Alanyl)-3-amino-5-(2-boronoethyl)piperidine-3-carboxylic acid dihydrochloride]

Reference: US10851099B2, “Dipeptide piperidine derivatives” (OncoArendi Therapeutics S.A., priority 2018, dated 2020)
